Results published in paper PMC4094517, “Structural Analysis and Mutant Growth Properties Reveal Distinctive Enzymatic and Cellular Roles for the Three Major L-Alanine Transaminases of Escherichia coli” (PLoS ONE, 2014).

Assays:
AlaA = biological target: T1, AlaA (Escherichia coli, UniProt P0A959); assay: X-ray crystal structure, […] Å; assay type: binding; conditions: covalent (internal aldimine, Schiff base with Lys240); acetate from crystallisation solution also in active site; crystals in 0.25 M lithium acetate, 22% PEG 3350, 20 °C
T1 construct: full length, 405 residues, N-terminal His6-TEV tag kept (pETM11, pAlaA), expressed in E. coli BL21(DE3), homodimer about 90 kDa

[1] = biological target: the molecule itself; assay: SEC; Superdex 200 10/300 GL after HisTrap, 4°C; elution mass estimated

Molecule	X-ray crystal structure, 2.11 Å (AlaA)	stoichiometry N [1]
Cc1ncc(COP(=O)(O)O)c(C=O)c1O [PLP]	An intact Schiff base linkage between Lys240 and PLP	
His-tagged AlaA (alanine aminotransferase AlaA of Escherichia coli) (enzyme, UniProt P0A959 1-405, looked up, Lys240 in Schiff base linkage with pyridoxal 5'-phosphate (LLP, Lys-PLP), AlaA, alanine aminotransferase (glutamic-pyruvic transaminase), Escherichia coli, 405-amino-acid monomer; alaA amplified from E. coli XL1-Blue genomic DNA into pETM11; pETM11 adds an N-terminal hexahistidine tag and a TEV protease cleavage site; Modelled residues 1-404 (chain A) and 2-405 (chain B); also called full-length AlaA; His6-AcTev-AlaA; source: E. coli BL21(DE3), purified (HisTrap, …)) MSPIEKSSKLENVCYDIRGPVLKEAKRLEEEGNKVLKLNIGNPAPFGFDAPDEILVDVIRNLPTAQGYCDSKGLYSARKAIMQHYQARGMRDVTVEDIYIGNGVSELIVQAMQALLNSGDEMLVPAPDYPLWTAAVSLSSGKAVHYLCDESSDWFPDLDDIRAKITPRTRGIVIINPNNPTGAVYSKELLMEIVEIARQHNLIIFADEIYDKILYDDAEHHSIAPLAPDLLTITFNGLSKTYRVAGFRQGWMVLNGPKKHAKGYIEGLEMLASMRLCANVPAQHAIQTALGGYQSISEFITPGGRLYEQRNRAWELINDIPGVSCVKPRGALYMFPKIDAKRFNIHDDQKMVLDFLLQEKVLLVQGTAFNWPWPDHFRIVTLPRVDDIELSLSKFARFLSGYHQL		2
